ChEMBL document CHEMBL5291721, “A preclinical secondary pharmacology resource illuminates target-adverse drug reaction associations of marketed drugs” (Nat Commun, 2023)

How the values were obtained:
[1] = biological target: T1, Type-1 angiotensin II receptor (Homo sapiens, UniProt P30556)
T1 sequence (P30556 whole entry): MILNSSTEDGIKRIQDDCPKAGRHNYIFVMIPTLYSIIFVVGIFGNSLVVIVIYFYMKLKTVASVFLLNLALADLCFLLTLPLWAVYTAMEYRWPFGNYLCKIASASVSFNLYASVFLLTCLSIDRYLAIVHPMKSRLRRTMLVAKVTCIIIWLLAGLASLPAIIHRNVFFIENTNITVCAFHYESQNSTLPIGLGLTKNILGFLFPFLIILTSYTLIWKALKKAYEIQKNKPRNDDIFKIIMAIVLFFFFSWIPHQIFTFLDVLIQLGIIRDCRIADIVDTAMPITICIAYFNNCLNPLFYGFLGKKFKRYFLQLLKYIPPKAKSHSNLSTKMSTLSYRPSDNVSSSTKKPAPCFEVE

[2] = biological target: Type-2 angiotensin II receptor (Homo sapiens, UniProt P50052); assay type: functional
Bile acid receptor [3] = biological target: T2, Bile acid receptor (Homo sapiens, UniProt Q96RI1); assay type: functional
T2 sequence (Q96RI1 whole entry): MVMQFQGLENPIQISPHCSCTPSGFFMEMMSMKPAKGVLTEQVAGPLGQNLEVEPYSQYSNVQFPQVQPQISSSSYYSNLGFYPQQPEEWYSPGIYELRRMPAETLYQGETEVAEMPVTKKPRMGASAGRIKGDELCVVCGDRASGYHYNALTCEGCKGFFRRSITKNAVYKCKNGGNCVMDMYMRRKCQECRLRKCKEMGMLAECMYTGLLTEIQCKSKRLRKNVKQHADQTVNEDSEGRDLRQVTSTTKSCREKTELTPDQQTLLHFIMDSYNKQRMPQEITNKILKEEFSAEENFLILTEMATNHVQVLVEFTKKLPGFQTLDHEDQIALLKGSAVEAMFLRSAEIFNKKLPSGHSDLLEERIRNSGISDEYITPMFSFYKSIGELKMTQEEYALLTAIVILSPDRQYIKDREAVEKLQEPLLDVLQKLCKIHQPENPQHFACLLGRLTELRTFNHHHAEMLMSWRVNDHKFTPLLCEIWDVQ

Bile acid receptor [4] = biological target: T2, Bile acid receptor; assay type: functional; remark: listed apart in the source
[5] = biological target: T3, Oxysterols receptor LXR-alpha (Homo sapiens, UniProt Q13133); assay type: functional
T3 sequence (Q13133 whole entry): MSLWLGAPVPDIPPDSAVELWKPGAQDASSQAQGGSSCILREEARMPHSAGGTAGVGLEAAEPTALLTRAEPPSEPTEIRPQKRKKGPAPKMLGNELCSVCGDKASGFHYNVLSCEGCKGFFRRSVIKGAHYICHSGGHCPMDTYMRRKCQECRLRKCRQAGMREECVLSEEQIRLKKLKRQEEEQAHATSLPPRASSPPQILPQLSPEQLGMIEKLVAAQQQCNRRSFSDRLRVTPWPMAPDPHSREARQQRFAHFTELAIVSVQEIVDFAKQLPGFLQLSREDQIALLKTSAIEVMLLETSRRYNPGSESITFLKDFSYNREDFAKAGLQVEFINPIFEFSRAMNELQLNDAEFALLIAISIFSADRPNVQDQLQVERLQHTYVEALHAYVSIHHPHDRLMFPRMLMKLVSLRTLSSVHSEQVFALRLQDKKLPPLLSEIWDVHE

[6] = biological target: T4, Retinoic acid receptor beta (Homo sapiens, UniProt P10826); assay type: functional, cell-based
T4 sequence (P10826 whole entry): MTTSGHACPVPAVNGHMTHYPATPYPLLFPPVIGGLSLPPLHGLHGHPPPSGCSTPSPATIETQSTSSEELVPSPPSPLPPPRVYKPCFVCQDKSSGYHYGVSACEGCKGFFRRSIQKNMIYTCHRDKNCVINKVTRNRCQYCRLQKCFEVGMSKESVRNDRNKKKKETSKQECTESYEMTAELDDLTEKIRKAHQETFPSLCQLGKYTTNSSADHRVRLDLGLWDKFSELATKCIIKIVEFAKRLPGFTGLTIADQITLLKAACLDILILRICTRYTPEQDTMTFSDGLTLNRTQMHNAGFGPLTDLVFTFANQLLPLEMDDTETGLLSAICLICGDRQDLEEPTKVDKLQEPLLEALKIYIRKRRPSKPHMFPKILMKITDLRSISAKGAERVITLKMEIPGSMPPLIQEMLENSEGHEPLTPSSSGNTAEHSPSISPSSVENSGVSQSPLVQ

[7] = biological target: T5, Retinoic acid receptor alpha (Homo sapiens, UniProt P10276); assay type: functional, cell-based
T5 sequence (P10276 whole entry): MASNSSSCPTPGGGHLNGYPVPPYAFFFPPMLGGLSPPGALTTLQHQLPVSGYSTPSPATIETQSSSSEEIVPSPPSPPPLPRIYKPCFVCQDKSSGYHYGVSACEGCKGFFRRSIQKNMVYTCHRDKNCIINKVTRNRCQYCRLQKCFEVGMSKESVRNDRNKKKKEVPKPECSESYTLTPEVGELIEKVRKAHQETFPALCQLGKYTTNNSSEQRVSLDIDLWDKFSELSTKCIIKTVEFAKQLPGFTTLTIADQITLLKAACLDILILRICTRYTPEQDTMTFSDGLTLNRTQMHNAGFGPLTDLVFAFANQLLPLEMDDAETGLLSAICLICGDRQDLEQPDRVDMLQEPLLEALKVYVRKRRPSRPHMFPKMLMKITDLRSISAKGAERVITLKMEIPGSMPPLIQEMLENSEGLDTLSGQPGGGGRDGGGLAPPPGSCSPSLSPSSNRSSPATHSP
Note: assay procedure not described here.

Sequence of Type-2 angiotensin II receptor (P50052 whole entry): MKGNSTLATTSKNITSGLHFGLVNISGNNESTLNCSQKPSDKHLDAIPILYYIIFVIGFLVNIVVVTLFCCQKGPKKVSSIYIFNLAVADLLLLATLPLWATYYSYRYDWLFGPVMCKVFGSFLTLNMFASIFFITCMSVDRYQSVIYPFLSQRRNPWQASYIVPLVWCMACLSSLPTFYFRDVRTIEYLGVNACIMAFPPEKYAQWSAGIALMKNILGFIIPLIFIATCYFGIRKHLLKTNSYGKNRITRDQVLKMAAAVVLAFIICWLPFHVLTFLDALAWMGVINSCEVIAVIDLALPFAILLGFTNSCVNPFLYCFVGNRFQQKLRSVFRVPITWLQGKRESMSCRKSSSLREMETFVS

SMILES: CN1CCCC(n2nc(Cc3ccc(Cl)cc3)c3ccccc3c2=O)CC1 (configuration not stated) [AZELASTINE]
- AC50 [1]: > 100 µM

SMILES: CC(C)NCC(O)COc1ccc(COCCOC(C)C)cc1 (configuration not stated) [BISOPROLOL]
- AC50 [2]: > 100 µM

SMILES: COc1ccc2c(c1)C(=O)N(CCc1ccc(S(=O)(=O)NC(=O)NC3CCCCC3)cc1)C(=O)C2(C)C [GLIQUIDONE]
- AC50 (Bile acid receptor [3]): > 10 µM
- AC50 (Bile acid receptor [4]): > 30 µM
- AC50 [5]: > 30 µM
- AC50 [6]: 24 µM
- AC50 [7]: 22 µM
